# Measurements: patent US20070275994A1, “Novel Antinfective Compounds” (priority 2003, published 2007)
# Tests used:
# [1] = system: Staphylococcus aureus MTCC 96; assay: MIC by microbroth dilution, Staphylococcus aureus MTCC 96; type: cell-based; details: 37° C., 16-18 hrs; for MIC: MTCC96, Mueller Hinton Broth, read-out: MIC, in vitro activity, Sa1; for MIC, in vitro activity, Sa1: Mueller Hinton Broth
# Procedure: (§1) The antibacterial spectrum and potency of a particular compound may be determined in a standard test system.
# (§2) The minimum inhibitory concentrations (MIC's) of the compounds for the microorganisms listed in Table A were determined by preparing working solution for each compound of concentration of 128 μg/ml after dissolving it in DMSO. […] 30 μg/ml of Standard suspension of each organism which was prepared with turbidity equivalent to the 1:10 diluted 0.5 McFarland standard with density 10^7 CFU/ml, was added to each well to get approximately a density of 10^5 CFU/ml. These 96-well Tissue culture plate containing the test samples and positive and negative controls, were incubated at 37° C. for 16-18 hrs. The wells were visually inspected for growth and were also read at 630 nm by Automated Microplate Reader [(EL800) Trinity Biotech.] and the MIC's were recorded as the lowest concentration of drug which inhibits the growth of bacteria.
# (§3) • Bp: Bacillus pumilus MTCC 1607 • S.e.: Staphylococcus epidermidis MTCC 155 • S.p.: Staphylococcus pyogenes MTCC 442 • S.a.1: Staphylococcus aureus MTCC 96 • S.a.2: Staphylococcus aureus ATCC 14154 • S.a.3: Staphylococcus aureus ATCC 25923 • S.a.4: Staphylococcus aureus ATCC 29213 • E.f.1: Enterococcus faecalis MTCC 439 • E.f.2: Enterococcus faecalis ATCC 14506 • K.0p.: Klebsiella pneumoniae ATCC 10031
# [2] = system: Staphylococcus aureus ATCC 14154; assay: MIC by microbroth dilution, Staphylococcus aureus ATCC 14154; type: cell-based; details: ATCC14154, Mueller Hinton Broth, 37° C., 16-18 hrs, read-out: MIC, in vitro activity, Sa2
# Procedure: as §1, §2, §3
# [3] = system: Pseudomonas aeruginosa ATCC 27853; assay: MIC by microbroth dilution, Pseudomonas aeruginosa ATCC 27853; type: cell-based; details: 37° C., 16-18 hrs; for MIC: ATCC27853, Mueller Hinton Broth, read-out: MIC, in vitro activity, Pa; for MIC, in vitro activity, Pa: Mueller Hinton Broth
# Procedure: as §1, §2
# P.a.: Pseudomonas aeruginosa ATCC 27853
# [4] = system: Enterococcus faecalis MTCC 439; assay: MIC by microbroth dilution, Enterococcus faecalis MTCC 439; type: cell-based; details: 37° C., 16-18 hrs; for MIC: MTCC439, Mueller Hinton Broth, read-out: MIC, in vitro activity, Ef1
# Procedure: as §1, §2, §3
# [5] = system: Staphylococcus aureus ATCC 29213; assay: MIC by microbroth dilution, Staphylococcus aureus ATCC 29213; type: cell-based; details: ATCC29213, Mueller Hinton Broth, 37° C., 16-18 hrs, read-out: MIC, in vitro activity, Sa4
# Procedure: as §1, §2, §3
# [6] = system: Staphylococcus aureus ATCC 25923; assay: MIC by microbroth dilution, Staphylococcus aureus ATCC 25923; type: cell-based; details: ATCC25923, Mueller Hinton Broth, 37° C., 16-18 hrs, read-out: MIC, in vitro activity, Sa3
# Procedure: as §1, §2, §3
# [7] = system: Bacillus pumilus MTCC 1607; assay: MIC by microbroth dilution, Bacillus pumilus MTCC 1607; type: cell-based; details: 37° C., 16-18 hrs; for MIC: MTCC1607, Mueller Hinton Broth, read-out: MIC, in vitro activity, Bp; for MIC, in vitro activity, Bp: Mueller Hinton Broth
# Procedure: as §1, §2, §3
# [8] = system: Staphylococcus pyogenes MTCC 442; assay: MIC by microbroth dilution, Staphylococcus pyogenes MTCC 442; type: cell-based; details: MTCC442, Mueller Hinton Broth, 37° C., 16-18 hrs, read-out: MIC, in vitro activity, Sp
# Procedure: as §1, §2, §3
# [9] = system: Staphylococcus epidermidis MTCC 155; assay: MIC by microbroth dilution, Staphylococcus epidermidis MTCC 155; type: cell-based; details: MTCC155, Mueller Hinton Broth, 37° C., 16-18 hrs, read-out: MIC, in vitro activity, Se
# Procedure: as §1, §2, §3
# [10] = system: Enterococcus faecalis ATCC 14506; assay: MIC by microbroth dilution, Enterococcus faecalis ATCC 14506; type: cell-based; details: ATCC14506, Mueller Hinton Broth, 37° C., 16-18 hrs, read-out: MIC, in vitro activity, Ef2
# Procedure: as §1, §2, §3
Compound,MIC [1] [mg/L],MIC [2] [mg/L],MIC [3] [mg/L],MIC [4] [mg/L],MIC [5] [mg/L],MIC [6] [mg/L],MIC [7] [mg/L],MIC [8] [mg/L],MIC [9] [mg/L],MIC [10] [mg/L],melting point [°C],"MIC, in vitro activity, Sa1 [1] [mg/L]","MIC, in vitro activity, Pa [3] [mg/L]","MIC, in vitro activity, Bp [7]","MIC, in vitro activity, Ef1 ([4]; Mueller Hinton Broth) [mg/L]"
"O=C(O)c1cn(C2CC2)c2cc(N3CCNCC3)c(F)cc2c1=O [Ciprofloxacin, ciprofloxacin, reference compound]",0.25,0.5,0.5,0.25,0.25,0.5,< 0.12,0.5,0.25,0.25,,,,,
"COc1c(N2CCc3sccc3C2)c(F)cc2c(=O)c(C(=O)O)cn(C3CC3)c12 [Compound 13, 1-Cyclopropyl-7-(6,7-dihydro-4H-thieno[3,2-c]pyridin-5-yl)-6-fluoro-8-methoxy-4-oxo-1,4-dihydro-quinoline-3-carboxylic acid]",≤ 0.12,≤ 0.12,16,≤ 0.12,0.25,0.5,≤ 0.12,≤ 0.12,≤ 0.12,0.25,173 to 175,,,,
"O=C(O)c1cn(C2CC2)c2cc(N3CCc4sccc4C3)c(F)cc2c1=O [Compound 14, 1-Cyclopropyl-7-(6,7-dihydro-4H-thieno[3,2-c]pyridin-5-yl)-6-fluoro-4-oxo-1,4-dihydro-quinoline-3-carboxylic acid]",0.25,0.25,,,0.5,0.5,≤ 0.12,,0.25,,,,,,
"COc1c(N2CCc3sccc3C2)c(F)c([N+](=O)[O-])c2c(=O)c(C(=O)O)cn(C3CC3)c12 [Compound 15, 1-Cyclopropyl-7-(6,7-dihydro-4H-thieno[3,2-c]pyridin-5-yl)-6-fluoro-8-methoxy-5-nitro-4-oxo-1,4-dihydro-quinoline-3-carboxylic acid]",1,,,,,,0.25,,,,,,,,
"O=C(O)c1cn(C2CC2)c2c(F)c(N3CCc4sccc4C3)c(F)c(F)c2c1=O [Compound 16, 1-Cyclopropyl-7-(6,7-dihydro-4H-thieno[3,2-c]pyridin-5-yl)-5,6,8-fluoro-4-oxo-1,4-dihydro-quinoline-3-carboxylic acid]",,,,,,,,,,,,0.25,>64,0.25 mg/L,
"Nc1c(F)c(N2CCc3sccc3C2)c(F)c2c1c(=O)c(C(=O)O)cn2C1CC1 [Compound 17, 5-Amino-1-cyclopropyl-7-(6,7-dihydro-4H-thieno[3,2-c]pyridin-5-yl)-6,8-difluoro-4-oxo-1,4-dihydro-quinoline-3-carboxylic acid]",≤ 0.12,≤ 0.12,16,≤ 0.12,0.25,0.5,≤ 0.12,≤ 0.12,≤ 0.12,0.25,,,,,
"COc1c(N2CCc3sc([N+](=O)[O-])cc3C2)c(F)cc2c(=O)c(C(=O)O)cn(C3CC3)c12 [Compound 19, 1-Cyclopropyl-6-fluoro-8-methoxy-7-(2-nitro-6,7-dihydro-4H-thieno[3,2-c]pyridin-5-yl)-4-oxo-1,4-dihydro-quinoline-3-carboxylic acid]",0.25,,1,≤ 0.12,,,≤ 0.12,≤ 0.12,≤ 0.12,0.25,,,,,
"COc1c(N2CCc3sc(C=O)cc3C2)c(F)cc2c(=O)c(C(=O)O)cn(C3CC3)c12 [Compound 20, 1-Cyclopropyl-6-fluoro-7-(2-formyl-6,7-dihydro-4H-thieno[3,2-c]pyridin-5-yl)-8-methoxy-4-oxo-1,4-dihydro-quinoline-3-carboxylic acid]",≤ 0.12,,8,≤ 0.12,,,≤ 0.12,0.25,0.25,,,,,,
"COc1c(N2CCc3sc(CO)cc3C2)c(F)cc2c(=O)c(C(=O)O)cn(C3CC3)c12 [Compound 21, 1-Cyclopropyl-6-fluoro-7-(2-hydroxymethyl-6,7-dihydro-4H-thieno[3,2-c]pyridin-5-yl)-8-methoxy-4-oxo-1,4-dihydro-quinoline-3-carboxylic acid]",0.25,,16,0.25,,,≤ 0.12,,0.25,,,,,,
"COc1c(N2CCc3sc(C(=O)O)cc3C2)c(F)cc2c(=O)c(C(=O)O)cn(C3CC3)c12 [Compound 22, 7-(2-carboxy-6,7-dihydro-4H-thieno[3,2-c]pyridin-5-yl)-1-cyclopropyl-6-fluoro-8-methoxy-4-oxo-1,4-dihydro-quinoline-3-carboxylic acid]",4,,> 16,8,,,0.5,,,,,,,,
"COc1c(N2CCc3occc3C2C)c(F)cc2c(=O)c(C(=O)O)cn(C3CC3)c12 (stereo not drawn) [Compound 23, 1-Cyclopropyl-6-fluoro-8-methoxy-7-(4-methyl-6,7-dihydro-4H-fluoro[3,2-c]pyridin-5-yl)-4-oxo-1,4-dihydro-quinoline-3-carboxylic acid]",,,,,,,,,,,,8,>16,≦0.12 μg/ml,2
"COc1c(N2CCNC(C)C2)c(F)cc2c(=O)c(C(=O)O)cn(C3CC3)c12 (stereo not drawn) [Gatifloxacin, gatifloxacin, reference compound]",≤ 0.12,≤ 0.12,4,0.5,0.12,0.25,≤ 0.12,0.5,≤ 0.12,0.5,,,,,
